“Also recorded” adds a separate entry of the source. Ends that are not written are not given here.
What was measured:
[1] = test system: HCT116 cells (carcinoma); assay: HCT116 xenograft in SCID mice; assay type: in vivo; settings: 25 mg/kg daily, 21 days of treatment
Procedure: (§1) SCID mice were injected subcutaneously with either 1 million HCT116 cells (carcinoma) or HT29 cells (adenocarcinoma) both of which are colon cancer cells. After 2 weeks tumors developed could be seen and the process of injecting AT-01C peptide was initiated. For HCT116 xenograft mice model AT-01C peptide of 25 mg/kg body weight of mice was injected intra-peritoneally. In case of HT29 xenograft mice model AT-01C peptide of 50 mg/kg body weight of mice was injected intra-peritoneally. Stock concentration of the AT-01C was 10 mg/ml. Both the mice group were injected with AT-01C peptide for 21 days daily just 5 mm away from the tumors. The daily injection was performed by injecting AT-01C surrounding the tumors being developed. After 21 days of injection tumors excised and their weight and volume was measured.
(§2) Tumors raised in SCID mice by subcutaneously injecting either 1 million HCT116 cells or HT29 cells (Xenograft model). After tumors developed and were visible to eyes AT-01C peptide treatment was started. For tumors raised using HCT116 colon cancer cells AT-01C of 25 mg/kg body weight of mice was injected intra-peritoneally. AT-01C peptide of 50 mg/kg body weight was injected intra-peritoneally as treatment for tumors raised with HT29 cells. AT-01C was injected daily surrounding the tumor 5 mm away from it. After 21 days of peptide injection, mice were sacrificed and tumors excised. […]

[2] = test system: HT29 cells (adenocarcinoma); assay: HT29 xenograft in SCID mice; assay type: in vivo; settings: 50 mg/kg daily, 21 days of treatment
Procedure: as §1, §2

[3] = test system: SMAR1; assay: Peptide interaction assay by ITC, SMAR1; assay type: binding; settings: 25° C.
[4] = target: T1, SMAR1 (Homo sapiens, UniProt Q8N9N5); assay: SMAR1 stabilization/induction in HCT116 cells (western blot); assay type: cell-based; settings: peptide treatment 48 hours
T1 construct: HCT116 cells treated with different available peptides for 48 hours stabilized SMAR1 expression; endogenous in cells; host or cells: HCT116 p53+/+, HCT116 p53-/-, MCF7, SW620, NCI-H522, MDA-MB231
T1 sequence (Q8N9N5 1-519): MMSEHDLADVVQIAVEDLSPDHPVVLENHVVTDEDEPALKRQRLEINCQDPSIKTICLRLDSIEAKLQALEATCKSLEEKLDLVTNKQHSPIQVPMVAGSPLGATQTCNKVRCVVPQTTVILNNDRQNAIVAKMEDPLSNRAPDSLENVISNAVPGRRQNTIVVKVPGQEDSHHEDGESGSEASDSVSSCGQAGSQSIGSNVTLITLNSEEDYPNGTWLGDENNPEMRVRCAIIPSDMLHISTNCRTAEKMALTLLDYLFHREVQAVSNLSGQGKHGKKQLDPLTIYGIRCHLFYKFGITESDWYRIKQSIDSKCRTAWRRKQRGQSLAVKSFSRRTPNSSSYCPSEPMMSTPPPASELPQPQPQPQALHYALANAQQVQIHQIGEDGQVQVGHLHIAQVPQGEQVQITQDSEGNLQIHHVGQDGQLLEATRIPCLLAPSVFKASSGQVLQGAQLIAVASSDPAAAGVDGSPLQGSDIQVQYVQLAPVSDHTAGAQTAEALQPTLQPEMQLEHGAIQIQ

[5] = test system: SMAR1; assay: PCR of SMAR1 mRNA in HCT116p53+/+ cells; settings: 48 hours
[6] = target: T1, SMAR1; assay: SMAR1 induction in HCT116p53-/- cells; assay type: cell-based
[7] = target: T1, SMAR1; assay: SMAR1 stabilization across a variety of cancer cell lines (MCF7, SW620, NCI-H522, HCT116p53-/-, MDA-MB231); assay type: cell-based; settings: different concentrations
[8] = test system: MDA-MB231 breast cancer cells; assay: Wound healing / cell migration assay; assay type: cell-based, Human; settings: MDA-MB231, 10 μg peptide, recorded up to 16 hours, vs DMSO control
Procedure: MDA-MB231 breast cancer cells (1×10^^6) were seeded in a 6 well plate and maintained in L15 DMEM medium supplemented with 10% FBS and 100 Units of Penicillin Streptomycin antibiotics for 24 hours. Cells were treated for 24 hours with AT-01C and AT-01D peptides of 10 μg each. Post 24 hours wound was created and washed with medium to remove the cells detached during wound creation. Fresh peptides were added plate was mounted at the microscope chamber maintaining the temperature of 37° C. Images were acquired in NIKON Confocal Microscope for 5 minutes interval. Time lapse was set for 16 hours and images were compiled to make the video movie of the cell migration.

[9] = test system: HCT116 cells; assay: Colony formation assay; assay type: cell-based
Procedure: 200 HCT116 cells seeded in 35 mm petri dishes and cultured for 24 hours. 10 μg of AT-01D added fresh every two days up to day 12th. Cell were washed with 1× Phosphate Buffer Saline and then fixed using 3% Para-formaldehyde for 10 minutes. Cells were washed and stained with Crystal violet for 30 minutes. After washing with PBS plates were kept inverted and air dried. Colonies were counted using inverted bright field microscope (Nikon). A group of cells were identified to be a colony that consists of more than 50 cells.

[10] = test system: MDA-MB231 cells; assay: Annexin V staining by flow cytometry (FACS); assay type: cell-based, Human; settings: after peptide treatment
[11] = target: T2, Scaffold Matrix Attachment Region Binding Protein 1 (SMAR1), full length (UniProt Q8N9N5 1-519); assay: ITC, 25 C
T2 construct: This molecule also stands for endogenous SMAR1 of HCT116 cells in the functional rows
T2 sequence: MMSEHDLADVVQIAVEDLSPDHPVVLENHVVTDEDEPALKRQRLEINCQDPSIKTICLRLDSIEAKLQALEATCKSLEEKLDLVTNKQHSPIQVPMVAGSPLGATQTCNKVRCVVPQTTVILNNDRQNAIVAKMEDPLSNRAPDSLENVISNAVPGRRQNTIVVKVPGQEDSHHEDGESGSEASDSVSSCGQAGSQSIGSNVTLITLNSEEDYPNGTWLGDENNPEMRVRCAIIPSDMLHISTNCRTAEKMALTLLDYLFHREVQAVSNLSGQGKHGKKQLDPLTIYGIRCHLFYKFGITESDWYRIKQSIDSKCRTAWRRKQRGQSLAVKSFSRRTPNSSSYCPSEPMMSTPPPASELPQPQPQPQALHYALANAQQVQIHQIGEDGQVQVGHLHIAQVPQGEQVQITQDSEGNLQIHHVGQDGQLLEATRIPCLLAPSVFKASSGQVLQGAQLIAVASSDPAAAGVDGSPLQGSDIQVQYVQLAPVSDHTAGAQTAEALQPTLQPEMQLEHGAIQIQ

ATATVNAIRGSVTPAVSQFN [AT-01C]
survival of mice [1]: All the mice survived | survival of mice [2]: All the mice survived

GQVWEATATVNAIRGSVTPAVSQFNARTAD (The sequence is developed from MPT63 of M. tuberculosis) [AT-01, 30 amino acid peptide synthesized from MPT-63 of M. tuberculosis]
interaction with SMAR1 (ITC) [3]: failed to interact with SMAR1 | SMAR1 stabilization / induction [4]: very less or no induction of SMAR1

NAIRGSVTPAVSQFN (The sequence is developed from MPT63 of M. tuberculosis) [AT-01D, 15 amino acid peptide derived from AT01]
transcriptional regulation of SMAR1 (PCR) [5]: failed to control the transcriptional regulation of SMAR1 | induction of SMAR1 [6]: induction of SMAR1 was observed | interaction with SMAR1 (ITC) [3]: positive results | SMAR1 stabilization / induction [4]: heightened effectiveness; also recorded: superior induction of SMAR1; also recorded: stabilized SMAR1 the most; also recorded: significantly induce expression of SMAR1 | SMAR1 stabilization [7]: heightened effectiveness | cell migration [8]: mitigation of anticipated cell migration; also recorded: attenuate migration | colony formation / rate of cell proliferation ([9]; HCT116, 10 μg, 12 days, vs DMSO control): delayed or decreased | apoptotic cells in colony formation culture ([9]; HCT116, till the 12th day): No apoptotic cells or group of cells observed | cell death (Annexin V) [10]: no signs of cell death

B1: AT-01 (peptide)
peptide: GQVWEATATVNAIRGSVTPAVSQFNARTAD
notes: also called parent 30 amino acid peptide
binding result [11]: no binding
